Test results taken from patent US12697331B2, “Methods of use of T-type calcium channel modulators” (PRAXIS PRECISION MEDICINES, INC., priority 2020, dated 2026).
Counter-ions that a name gives are not always drawn.

How the values were obtained:
gamma band EEG power = experiment: qEEG: gamma band EEG power (eyes open / eyes closed); format: in vivo, human; details: Part B, beginning at 60 mg and continuing through to 120 mg
From the text: It appears a maximal effect in gamma reduction was not achieved.
The eyes open (EO) and eyes closed (EC) gamma absolute power for each individual was also estimated at specific time points across the study days.

[1] = system: sigma band EEG power during NREM sleep; experiment: 24-hour EEG/PSG: sigma band EEG power during NREM sleep; format: in vivo, human
Description: The effects of multiple doses of a wider dose range (Part A: 5, 10, 20 mg; Part B: 60, 80, 100, 120 mg) on sigma band EEG power during NREM sleep were also evaluated as part of the protocol described in Example 11, above. 24-hour EEG/PSG recordings were performed the day before dosing (baseline day) and after dosing on Days 4, 8, and 12 (for Part A) or Days 10, 17, 24, and 31 (for Part B). Part B also included placebo-treated participants for statistical comparisons.

[2] = Food effect: high-fat, high-calorie meal, single 20 mg dose; format: in vivo, human; details: single 20 mg oral dose
Description: The effect of a high-fat, high-calorie meal on the pharmacokinetics of a compound of formula (II) was evaluated in an open-label, sequential fashion following a single 20 mg dose of formulation 5 in participants who had previously received a 20 mg dose of formulation 5 under fasted conditions.

[3] = Within-participant escalating dose trial Part B: safety and tolerability (TEAEs); format: in vivo, human; details: titration 20 to 120 mg per day; no maximum tolerated dosage identified; hydrochloride
hCav3.2 = target: T1, hCav3.2 (Homo sapiens, UniProt O95180); experiment: PatchXpress patch clamp, voltage dependent block (half-inactivated state, V0.5); format: cell-based; details: for Inhibition of hCav3.2 peak current, voltage dependent block (percent inhibition), mean: half-inactivated state (V0.5)
T1 construct: expressed in transfected cells; host or cells: HEK-293 (cultured under G418 selection)
Description: (§1) The voltage dependence of calcium channel isoforms was determined by comparing the activity of resting (Tonic Block) and half-inactivated (Voltage Dependent Block) voltages across various concentrations of Formula (II). First, HEK-293 cells containing hCav3.1, hCav3.2, or hCav3.3 calcium channel isoforms were prepared by seeding at 2×10^6 cells per flask in culture for 2 days; the cells were then harvested at about 6×10^6 cells. Harvested cells were washed once in DPBS for approximately 30 minutes, and 1 mL of 1× (0.05%) Trypsin-EDTA was added, swirled, and allowed to sit on the cells for approximately 4 minutes. 10 mL of warmed DMEM high glucose media supplemented with 10% fetal bovine serum, 2 mM sodium pyruvate, 10 mM HEPES, and 400 μg/mL G418 was added, and the cells were triturated until a single cell suspension was […]. Cells were placed in a 250 mL centrifuge tube with 30 mL warmed media and gently rocked at 28° C. for approximately 1 hour. Cell aliquots of 5 mLs (1×10^6 cells) were then centrifuged at 100× for 2 minutes, and supernatant was removed. Next, 100 μl of external recording solution was added to the remaining cell pellet and triturated 20 times to achieve a single cell suspension.
(§2) Immediately prior to assay, Formula (II) was diluted with DMSO to 300× the designated final concentration. All studies were performed using the Molecular Devices PatchXpress automated patch clamp platform at room temperature.
(§3) Pharmacology was measured during Epoch 1. Percent inhibition was calculated as: 100*((([Step 2+Step 5]/2)−Step 3)/(Step 2+Step 5/2)), wherein Step 2 is the peak current measured at baseline, Step 5 is the current measured during the wash period, and Step 3 is the peak current measured during application of the compound. The average of the final 3 consecutive currents in each experimental procedure was used for all calculations. The concentration response curve was fit with a Hill equation to derive IC50, slope, minimum response, and maximum response fitting parameters.
(§4) To calculate the hCav3.1, hCav3.2, and hCav3.3 peak current from a half-inactivated state (voltage dependent block), currents were first evoked by depolarizing pulses to −25 mV (10 ms) from a non-inactivating holding potential (−120 mV) at a frequency of 0.1 Hz. After current amplitude became stable, the mid-point average of steady state inactivation was determined for each cell using a series of 9,900 ms conditioning steps to increasingly depolarize voltages (ranging from Vhold (−120 mV) to −40 mV) preceding a test pulse to −25 mV (10 ms) to establish the magnitude of inactivation. The holding command potential was then set to the voltage that produced approximately 50% inactivation (V0.5) using PatchXpress scripts. From this V0.5 potential, a voltage step to −25 mV (10 ms) was used to evoque peak current. The voltage was stepped to −120 mv (50 ms) to evoque tail currents and monitor cell integrity.
(§5) The effect of the compound on peak current amplitude was monitored using the voltage protocol described above and washed out after reaching steady state as determined by PatchXpress stability scripts. Washout was performed at the original holding potential of −120 mV to facilitate reversal of state-dependent interactions. Washout current for the calculation of inhibition was determined by resetting the holding potential to the previously determined half-inactivation potential (V0.5) and measuring peak current from this holding potential. Pharmacology was measured during Epoch 1, and percent inhibition was calculated as discussed above for tonic block.

hCav3.1 [4] = target: T2, hCav3.1 (Homo sapiens, UniProt O43497); experiment: as above; format: cell-based; details: for Inhibition of hCav3.1 peak current, voltage dependent block (percent inhibition), mean: half-inactivated state (V0.5)
T2 construct: expressed in transfected cells; host or cells: HEK-293 (cultured under G418 selection)
Description: as §1, §2, §3, §4, §5

hCav3.3 = target: T3, hCav3.3 (Homo sapiens, UniProt Q9P0X4); experiment: as above; format: cell-based; details: for Inhibition of hCav 3.3 peak current, voltage dependent block (percent inhibition), mean: half-inactivated state (V0.5)
T3 construct: expressed in transfected cells; host or cells: HEK-293 (cultured under G418 selection)
Description: as §1, §2, §3, §4, §5

hCav3.1 [5] = target: T2, hCav3.1; experiment: PatchXpress patch clamp, tonic block (resting state, -120 mV); format: cell-based
Description: as §1, §2
To determine the hCav3.1, hCav3.2, and hCav3.3 peak current from a resting, closed state (tonic block), currents were evokes by depolarizing pulses to −25 mV (10 ms) from −120 mV (a non-inactivated holding potential) at a frequency of 0.1 Hz. Peak current was defined as the peak inward current during Epoch 1 with no leak subtraction applied. Current stability was monitored, and the potency of each compound was determined using concentration response curves.
as §3

T3 sequence (Q9P0X4 whole entry): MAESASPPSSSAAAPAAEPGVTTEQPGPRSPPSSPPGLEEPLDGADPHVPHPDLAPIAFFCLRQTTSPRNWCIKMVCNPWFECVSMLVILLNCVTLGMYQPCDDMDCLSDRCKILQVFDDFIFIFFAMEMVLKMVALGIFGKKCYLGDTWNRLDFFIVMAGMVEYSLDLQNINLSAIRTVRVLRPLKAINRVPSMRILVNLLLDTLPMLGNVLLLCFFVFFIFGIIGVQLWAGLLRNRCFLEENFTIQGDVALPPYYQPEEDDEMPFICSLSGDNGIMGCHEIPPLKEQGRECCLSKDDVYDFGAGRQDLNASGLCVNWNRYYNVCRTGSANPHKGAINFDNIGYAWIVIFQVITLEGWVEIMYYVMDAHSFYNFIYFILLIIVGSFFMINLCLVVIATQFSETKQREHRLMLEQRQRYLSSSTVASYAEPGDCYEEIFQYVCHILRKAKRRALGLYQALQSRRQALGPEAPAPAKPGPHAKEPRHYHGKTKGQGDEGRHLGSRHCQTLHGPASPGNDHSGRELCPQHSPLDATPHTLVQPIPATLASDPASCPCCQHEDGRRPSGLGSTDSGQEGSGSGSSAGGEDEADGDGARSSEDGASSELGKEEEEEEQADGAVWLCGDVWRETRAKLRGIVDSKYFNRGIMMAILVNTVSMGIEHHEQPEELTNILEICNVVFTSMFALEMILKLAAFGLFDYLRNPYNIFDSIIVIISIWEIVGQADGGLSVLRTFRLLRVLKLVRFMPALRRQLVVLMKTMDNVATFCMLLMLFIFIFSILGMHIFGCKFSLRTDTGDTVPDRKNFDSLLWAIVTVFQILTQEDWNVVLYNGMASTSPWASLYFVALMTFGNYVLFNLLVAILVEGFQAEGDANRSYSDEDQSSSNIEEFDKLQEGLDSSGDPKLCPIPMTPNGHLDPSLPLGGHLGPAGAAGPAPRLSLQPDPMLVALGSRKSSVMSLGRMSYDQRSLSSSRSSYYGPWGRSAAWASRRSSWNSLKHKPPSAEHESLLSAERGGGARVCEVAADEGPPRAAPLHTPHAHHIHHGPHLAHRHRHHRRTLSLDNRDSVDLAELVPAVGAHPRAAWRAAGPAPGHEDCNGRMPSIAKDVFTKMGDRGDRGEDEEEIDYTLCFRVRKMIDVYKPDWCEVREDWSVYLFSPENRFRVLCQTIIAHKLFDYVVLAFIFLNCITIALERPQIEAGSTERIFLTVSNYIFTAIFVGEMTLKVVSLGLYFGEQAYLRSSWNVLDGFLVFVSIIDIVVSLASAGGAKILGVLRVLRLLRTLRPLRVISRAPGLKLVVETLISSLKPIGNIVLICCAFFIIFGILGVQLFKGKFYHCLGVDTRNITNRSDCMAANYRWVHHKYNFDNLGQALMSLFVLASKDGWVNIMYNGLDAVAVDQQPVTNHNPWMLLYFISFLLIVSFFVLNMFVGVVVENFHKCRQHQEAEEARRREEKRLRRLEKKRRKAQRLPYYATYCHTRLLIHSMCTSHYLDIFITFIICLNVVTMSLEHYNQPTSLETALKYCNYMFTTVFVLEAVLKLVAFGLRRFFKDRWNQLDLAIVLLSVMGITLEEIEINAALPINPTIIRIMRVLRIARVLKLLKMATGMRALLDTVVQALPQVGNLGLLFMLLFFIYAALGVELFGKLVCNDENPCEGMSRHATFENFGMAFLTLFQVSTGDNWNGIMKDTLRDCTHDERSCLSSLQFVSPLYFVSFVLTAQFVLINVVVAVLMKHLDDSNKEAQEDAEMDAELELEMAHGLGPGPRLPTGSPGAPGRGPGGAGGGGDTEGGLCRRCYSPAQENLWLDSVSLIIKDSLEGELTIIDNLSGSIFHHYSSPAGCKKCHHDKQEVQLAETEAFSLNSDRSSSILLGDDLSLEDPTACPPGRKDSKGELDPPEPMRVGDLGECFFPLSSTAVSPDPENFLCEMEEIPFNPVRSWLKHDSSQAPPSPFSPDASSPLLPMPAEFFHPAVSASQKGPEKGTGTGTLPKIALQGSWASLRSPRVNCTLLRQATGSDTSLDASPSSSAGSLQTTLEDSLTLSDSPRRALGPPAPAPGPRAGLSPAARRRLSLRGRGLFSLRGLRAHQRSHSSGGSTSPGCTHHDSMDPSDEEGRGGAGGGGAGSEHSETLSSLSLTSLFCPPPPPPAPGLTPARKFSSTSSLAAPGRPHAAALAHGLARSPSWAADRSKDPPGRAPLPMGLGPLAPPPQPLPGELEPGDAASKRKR
T2 sequence (O43497 whole entry): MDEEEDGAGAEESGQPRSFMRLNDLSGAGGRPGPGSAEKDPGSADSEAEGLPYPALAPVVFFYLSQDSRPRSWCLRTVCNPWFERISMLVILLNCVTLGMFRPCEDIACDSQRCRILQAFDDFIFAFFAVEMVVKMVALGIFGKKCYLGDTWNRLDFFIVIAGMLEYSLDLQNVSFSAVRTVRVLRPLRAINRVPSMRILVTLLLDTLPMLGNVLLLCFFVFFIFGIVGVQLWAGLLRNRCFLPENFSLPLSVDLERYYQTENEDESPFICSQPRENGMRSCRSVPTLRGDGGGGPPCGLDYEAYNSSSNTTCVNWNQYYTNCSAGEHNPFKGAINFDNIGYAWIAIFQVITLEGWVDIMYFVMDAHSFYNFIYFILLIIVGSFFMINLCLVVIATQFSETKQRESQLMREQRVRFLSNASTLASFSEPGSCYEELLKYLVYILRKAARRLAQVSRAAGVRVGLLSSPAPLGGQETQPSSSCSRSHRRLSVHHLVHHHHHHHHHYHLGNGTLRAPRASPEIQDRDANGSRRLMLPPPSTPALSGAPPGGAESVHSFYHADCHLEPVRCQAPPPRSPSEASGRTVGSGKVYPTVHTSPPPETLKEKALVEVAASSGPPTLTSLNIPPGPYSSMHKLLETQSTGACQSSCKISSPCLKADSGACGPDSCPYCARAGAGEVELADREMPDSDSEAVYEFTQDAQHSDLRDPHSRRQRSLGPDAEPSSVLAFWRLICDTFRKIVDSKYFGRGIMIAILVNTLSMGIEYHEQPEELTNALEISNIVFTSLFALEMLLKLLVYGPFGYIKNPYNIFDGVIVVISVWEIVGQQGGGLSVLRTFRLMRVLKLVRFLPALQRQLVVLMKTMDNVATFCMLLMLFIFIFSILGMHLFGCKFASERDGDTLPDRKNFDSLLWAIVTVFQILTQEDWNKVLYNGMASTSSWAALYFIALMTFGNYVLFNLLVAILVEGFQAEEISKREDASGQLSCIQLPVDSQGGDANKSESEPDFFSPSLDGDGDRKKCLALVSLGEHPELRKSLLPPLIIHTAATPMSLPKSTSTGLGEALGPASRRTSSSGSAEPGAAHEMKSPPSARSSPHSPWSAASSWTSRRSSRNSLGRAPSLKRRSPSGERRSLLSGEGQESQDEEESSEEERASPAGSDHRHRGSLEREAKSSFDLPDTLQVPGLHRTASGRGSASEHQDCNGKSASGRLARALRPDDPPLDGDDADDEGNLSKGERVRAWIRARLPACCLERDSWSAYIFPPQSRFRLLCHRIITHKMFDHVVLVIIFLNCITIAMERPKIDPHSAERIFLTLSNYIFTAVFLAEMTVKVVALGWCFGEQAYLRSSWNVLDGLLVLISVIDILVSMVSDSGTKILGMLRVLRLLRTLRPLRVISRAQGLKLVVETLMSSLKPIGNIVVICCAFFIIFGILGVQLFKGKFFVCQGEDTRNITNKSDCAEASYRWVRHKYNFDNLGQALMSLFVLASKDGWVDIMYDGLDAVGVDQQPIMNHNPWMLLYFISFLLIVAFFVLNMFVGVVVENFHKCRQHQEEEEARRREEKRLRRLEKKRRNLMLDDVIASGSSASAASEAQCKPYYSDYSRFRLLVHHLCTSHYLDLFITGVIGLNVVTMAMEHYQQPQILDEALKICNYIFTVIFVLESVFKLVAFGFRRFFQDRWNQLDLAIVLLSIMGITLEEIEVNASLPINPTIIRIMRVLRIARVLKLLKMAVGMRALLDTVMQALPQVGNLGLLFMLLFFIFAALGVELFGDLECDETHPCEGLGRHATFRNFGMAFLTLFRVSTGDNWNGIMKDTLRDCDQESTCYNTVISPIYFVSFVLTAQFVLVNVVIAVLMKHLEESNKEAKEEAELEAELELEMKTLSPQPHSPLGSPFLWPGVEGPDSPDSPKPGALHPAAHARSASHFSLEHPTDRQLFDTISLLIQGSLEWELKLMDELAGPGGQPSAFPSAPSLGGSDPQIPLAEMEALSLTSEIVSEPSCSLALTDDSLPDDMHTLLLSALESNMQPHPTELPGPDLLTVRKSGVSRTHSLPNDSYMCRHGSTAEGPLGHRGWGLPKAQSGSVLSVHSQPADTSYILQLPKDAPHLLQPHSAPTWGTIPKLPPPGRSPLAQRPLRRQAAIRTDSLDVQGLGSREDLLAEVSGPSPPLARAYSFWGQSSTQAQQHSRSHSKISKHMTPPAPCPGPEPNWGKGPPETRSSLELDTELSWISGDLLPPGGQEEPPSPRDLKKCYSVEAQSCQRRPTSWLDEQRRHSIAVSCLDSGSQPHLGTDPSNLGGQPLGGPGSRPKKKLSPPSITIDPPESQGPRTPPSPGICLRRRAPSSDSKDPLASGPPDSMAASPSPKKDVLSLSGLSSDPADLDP

CC(C)(C)NC(=O)CN1CCC(CNC(=O)c2cc(F)cc(Cl)c2)CC1 [compound of formula (II), N-((1-(2-(tert-butylamino)-2-oxoethyl)piperidin-4-yl)methyl)-3-chloro-5-fluorobenzamide hydrochloride]
Effect on gamma band EEG power (gamma band EEG power): dose-related reduction | Effect on NREM sigma band as compared to a placebo control ([1]; 20 mg tablet and 40 mg tablet (FIG. 12)): decrease | NREM sigma power, Difference Ratio Formula (II) v. Placebo ([1]; Day 10 (60 mg), Part B): 0.550 | Dose at which the decrease in sigma band EEG power plateaued ([1]; Part B, relative to placebo-treated subjects): 80 mg | AUClast Ratio (fed/fasted) [2]: 1.14 | AUC∞ Ratio (fed/fasted) [2]: 1.15 | Cmax Ratio (fed/fasted) [2]: 1.49 | Dose levels well-tolerated with a titrated dosing schedule [3]: up to 120 mg per day | Inhibition of hCav3.2 peak current, voltage dependent block (percent inhibition), mean (hCav3.2; 0.03 μm): 16.6 (11) | Inhibition of hCav3.2 peak current, voltage dependent block (percent inhibition), mean (hCav3.2; 0.09 μm): 31.2 (7) | Inhibition of hCav3.2 peak current, voltage dependent block (percent inhibition), mean (hCav3.2; 0.27 μm): 48.4 (9) | Inhibition of hCav3.2 peak current, voltage dependent block (percent inhibition), mean (hCav3.2; 0.91 μm): 78.8 (12) | Inhibition of hCav3.2 peak current, voltage dependent block (percent inhibition), mean (hCav3.2; 2.74 μm): 91.6 (13) | tonic block/voltage dependent block (TB/VDB) ratio (hCav3.2; hCav3.2): 2.0 | Inhibition of hCav3.1 peak current, voltage dependent block (percent inhibition), mean (hCav3.1 [4]; 0.03 μm): 13.9 (12) | Inhibition of hCav3.1 peak current, voltage dependent block (percent inhibition), mean (hCav3.1 [4]; 0.09 μm): 29.7 (14) | Inhibition of hCav3.1 peak current, voltage dependent block (percent inhibition), mean (hCav3.1 [4]; 0.27 μm): 55.2 15) | Inhibition of hCav3.1 peak current, voltage dependent block (percent inhibition), mean (hCav3.1 [4]; 0.91 μm): 73.8 (9) | Inhibition of hCav3.1 peak current, voltage dependent block (percent inhibition), mean (hCav3.1 [4]; 2.74 μm): 84.6 (9) | Inhibition of hCav3.1 peak current, voltage dependent block (percent inhibition), mean (hCav3.1 [4]; 9.13 μm): 86.0 (7) | tonic block/voltage dependent block (TB/VDB) ratio (hCav3.1 [4]; hCav3.1): 3.8 | Inhibition of hCav 3.3 peak current, voltage dependent block (percent inhibition), mean (hCav3.3; 0.03 μm): 12.9 (8) | Inhibition of hCav 3.3 peak current, voltage dependent block (percent inhibition), mean (hCav3.3; 0.09 μm): 26.9 (17) | Inhibition of hCav 3.3 peak current, voltage dependent block (percent inhibition), mean (hCav3.3; 0.27 μm): 58.7 (19) | Inhibition of hCav 3.3 peak current, voltage dependent block (percent inhibition), mean (hCav3.3; 0.91 μm): 76.9 (20) | Inhibition of hCav 3.3 peak current, voltage dependent block (percent inhibition), mean (hCav3.3; 2.74 μm): 89.4 (20) | Inhibition of hCav 3.3 peak current, voltage dependent block (percent inhibition), mean (hCav3.3; 9.13 μm): 92.9 (4) | tonic block/voltage dependent block (TB/VDB) ratio (hCav3.3; hCav3.3): 4.0 | Inhibition of peak current, tonic block, Mean (hCav3.1 [5]; 0.09 μm): 8.8 (7) % | Inhibition of peak current, tonic block, Mean (hCav3.1 [5]; 0.27 μm): 29.4 (11) % | Inhibition of peak current, tonic block, Mean (hCav3.1 [5]; 0.91 μm): 50.2 (9) % | Inhibition of peak current, tonic block, Mean (hCav3.1 [5]; 2.74 μm): 67.5 (10) % | Inhibition of peak current, tonic block, Mean (hCav3.1 [5]; 9.13 μm): 76.6 (9) % | Inhibition of peak current, tonic block, Mean (hCav3.1 [5]; 27.40 μm): 89.5 (4) %
